According to ChEMBL document CHEMBL4390659, “Molecular hybridization approach for phenothiazine incorporated 1,2,3-triazole hybrids as promising antimicrobial agents: Design, synthesis, molecular docking and in silico ADME studies” (Eur J Med Chem, 2019):
In brackets after ≈: the same amount, converted by molar mass.

Assays:
[1] = tested on: Mycobacterium tuberculosis; test: Antibacterial activity against Mycobacterium tuberculosis H37Rv ATCC 27294 assessed as reduction in mycobacterial growth incubated for 5 days by MABA method; type: functional; conditions: H37Rv ATCC 27294, 120 h
Escherichia coli = test: Antibacterial activity against Escherichia coli incubated for 24 hrs by agar dilution method; type: functional
Staphylococcus aureus = test: Antibacterial activity against Staphylococcus aureus incubated for 24 hrs by agar dilution method; type: functional
Pseudomonas aeruginosa = test: Antibacterial activity against Pseudomonas aeruginosa incubated for 24 hrs by agar dilution method; type: functional
[2] = tested on: Mycobacterium tuberculosis; test: Potency index, ratio of ciprofloxacin MIC to test compound MIC against Mycobacterium tuberculosis H37Rv ATCC 27294; type: functional
[3] = tested on: Mycobacterium tuberculosis; test: Potency index, ratio of streptomycin MIC to test compound MIC against Mycobacterium tuberculosis H37Rv ATCC 27294; type: functional
Vero = test: Cytotoxicity against African green monkey Vero cells assessed as reduction in cell viability incubated for 72 hrs by MTT assay; type: cell-based; conditions: Chlorocebus sabaeus
[4] = Cytotoxicity against African green monkey Vero cells assessed as cell growth inhibition at 6.25 ug/ml incubated for 72 hrs by MTT assay relative to control; type: cell-based; conditions: chlorocebus sabaeus, read-out: GI
[5] = Selectivity index, ratio of IC50 for African green monkey Vero cells to MIC for Mycobacterium tuberculosis H37Rv ATCC 27294; type: toxicity; conditions: read-out: Selectivity Index
[6] = tested on: Mycobacterium tuberculosis; test: Potency index, ratio of pyrazinamide MIC to test compound MIC against Mycobacterium tuberculosis H37Rv ATCC 27294; type: functional

SMILES | MIC [1] | MIC (Escherichia coli) [µg/mL] | MIC (Staphylococcus aureus) [µg/mL] | MIC (Pseudomonas aeruginosa) [µg/mL] | Ratio [2] | Ratio [3] | IC50 (Vero) [µg/mL] | inhibition at 72 h, 6.25 ug/ml [4] [%] | selectivity ratio [5] | Ratio [6]
Cc1ccc(Cn2cc(COCc3ccc4c(c3)Sc3ccccc3N4C)nn2)cc1 | 58.3 µM | 100 (≈ 233 µM) | 50 (≈ 117 µM) | 100 (≈ 233 µM) |  |  |  |  |  | 
N#Cc1ccc(Cn2cc(CN3c4ccc(/C=N/NC(=O)c5ccccc5)cc4Sc4ccc(C(F)(F)F)cc43)nn2)cc1 | 2.62 µM | 50 (≈ 82 µM) | 50 (≈ 82 µM) | 50 (≈ 82 µM) | 4 | 4 | 552 (≈ 905 µM) | 12.3 | 44.7 | 
N#Cc1ccc(Cn2cc(CN3c4ccccc4Sc4ccccc43)nn2)cc1 | 1.6 µg/mL | 12.5 (≈ 31.6 µM) | 6.25 (≈ 15.8 µM) | 12.5 (≈ 31.6 µM) | 4 | 4 | 1320 (≈ 3340 µM) | 11.1 | 119 | 2
CN1c2ccccc2Sc2cc(COCc3cn(Cc4ccccc4)nn3)ccc21 | 60.3 µM | 50 (≈ 121 µM) | 50 (≈ 121 µM) | 100 (≈ 241 µM) |  |  |  |  |  | 
CN1c2ccccc2Sc2cc(COCc3cn(Cc4ccccc4F)nn3)ccc21 | 28.9 µM | 25 (≈ 57.8 µM) | 25 (≈ 57.8 µM) | 50 (≈ 116 µM) |  |  |  |  |  | 
Cc1ccc(C(=O)N/N=C/c2ccc3c(c2)Sc2ccccc2N3Cc2cn(Cc3ccc(C#N)cc3)nn2)cc1 | 2.87 µM | 50 (≈ 90 µM) | 25 (≈ 45 µM) | 100 (≈ 180 µM) | 4 | 4 | 456 (≈ 821 µM) | 10.6 | 42.9 | 
N#Cc1ccc(Cn2cc(CN3c4ccc(/C=N/NC(=O)c5ccc(F)cc5)cc4Sc4ccc(C(F)(F)F)cc43)nn2)cc1 | 2.55 µM | 12.5 (≈ 19.9 µM) | 6.25 (≈ 9.96 µM) | 12.5 (≈ 19.9 µM) | 4 | 4 | 647 (≈ 1030 µM) | 8.42 | 76.8 | 2
CN1c2ccccc2Sc2cc(/C=N/OCc3cn(Cc4ccc(F)cc4)nn3)ccc21 | 56.1 µM | 25 (≈ 56.1 µM) | 12.5 (≈ 28.1 µM) | 25 (≈ 56.1 µM) |  |  |  |  |  | 
COc1ccc(Cn2cc(COCc3ccc4c(c3)Sc3ccccc3N4C)nn2)cc1 | 56.2 µM | 100 (≈ 225 µM) | 50 (≈ 112 µM) | 50 (≈ 112 µM) |  |  |  |  |  | 
Cc1ccc(C(=O)N/N=C/c2ccc3c(c2)Sc2ccc(C(F)(F)F)cc2N3Cc2cn(Cc3ccc(C#N)cc3)nn2)cc1 | 2.56 µM | 50 (≈ 80.2 µM) | 25 (≈ 40.1 µM) | 50 (≈ 80.2 µM) | 4 | 4 | 1570 (≈ 2510 µM) | 6.28 | 250 | 2
CN1c2ccccc2Sc2cc(/C=N/OCc3cn(Cc4ccccc4F)nn3)ccc21 | 56.1 µM | 25 (≈ 56.1 µM) | 12.5 (≈ 28.1 µM) | 25 (≈ 56.1 µM) |  |  |  |  |  | 
Fc1ccccc1Cn1cc(CN2c3ccccc3Sc3ccccc32)nn1 | 1.6 µg/mL | 12.5 (≈ 32.2 µM) | 12.5 (≈ 32.2 µM) | 25 (≈ 64.4 µM) | 4 | 4 | 924 (≈ 2380 µM) | 3.33 | 278 | 2
CN1c2ccccc2Sc2cc(COCc3cn(Cc4ccc([N+](=O)[O-])cc4)nn3)ccc21 | 54.4 µM | 50 (≈ 109 µM) | 25 (≈ 54.4 µM) | 50 (≈ 109 µM) |  |  |  |  |  | 
Cc1ccc(Cn2cc(CN3c4ccccc4Sc4ccccc43)nn2)cc1 | 6.25 µg/mL | 100 (≈ 260 µM) | 50 (≈ 130 µM) | 100 (≈ 260 µM) |  |  |  |  |  | 
CN1c2ccccc2Sc2cc(COCc3cn(Cc4ccc(F)cc4)nn3)ccc21 | 28.9 µM | 25 (≈ 57.8 µM) | 25 (≈ 57.8 µM) | 50 (≈ 116 µM) |  |  |  |  |  | 
CN1c2ccccc2Sc2cc(COCc3cn(Cc4ccc(C#N)cc4)nn3)ccc21 | 28.4 µM | 25 (≈ 56.9 µM) | 12.5 (≈ 28.4 µM) | 25 (≈ 56.9 µM) |  |  |  |  |  | 

SMILES | MIC [1] | MIC (Escherichia coli) [µg/mL] | MIC (Staphylococcus aureus) [µg/mL] | MIC (Pseudomonas aeruginosa) [µg/mL] | Ratio [2] | Ratio [3] | IC50 (Vero) [µg/mL] | inhibition at 72 h, 6.25 ug/ml [4] [%] | selectivity ratio [5] | Ratio [6]
CN1c2ccccc2Sc2cc(/C=N/OCc3cn(Cc4ccccc4)nn3)ccc21 | 58.4 µM | 100 (≈ 234 µM) | 50 (≈ 117 µM) | 50 (≈ 117 µM) |  |  |  |  |  | 
N#Cc1ccc(Cn2cc(CN3c4ccccc4Sc4ccc(C(F)(F)F)cc43)nn2)cc1 | 1.6 µg/mL |  |  |  | 4 | 4 | 2080 (≈ 4500 µM) | 5 | 417 | 2
O=[N+]([O-])c1ccc(Cn2cc(CN3c4ccccc4Sc4ccccc43)nn2)cc1 | 1.6 µg/mL | 50 (≈ 120 µM) | 50 (≈ 120 µM) | 100 (≈ 241 µM) | 4 | 4 | 484 (≈ 1160 µM) | 11.4 | 42.5 | 2
COc1ccc(Cn2cc(CN3c4ccccc4Sc4ccccc43)nn2)cc1 | 1.6 µg/mL | 25 (≈ 62.4 µM) | 25 (≈ 62.4 µM) | 50 (≈ 125 µM) | 4 | 4 | 6040 (≈ 15100 µM) | 7.57 | 797 | 2
Fc1ccc(Cn2cc(CN3c4ccccc4Sc4ccccc43)nn2)cc1 | 3.12 µg/mL | 12.5 (≈ 32.2 µM) | 12.5 (≈ 32.2 µM) | 12.5 (≈ 32.2 µM) |  |  | 3800 (≈ 9790 µM) | 8.34 | 456 | 
N#Cc1ccc(Cn2cc(CN3c4ccccc4Sc4cc(/C=N/NC(=O)c5cccnc5)ccc43)nn2)cc1 | 2.94 µM | 25 (≈ 46.1 µM) | 12.5 (≈ 23 µM) | 50 (≈ 92.1 µM) | 4 | 4 | 1610 (≈ 2970 µM) | 8.42 | 192 | 
CN1c2ccccc2Sc2cc(/C=N/OCc3cn(Cc4ccc([N+](=O)[O-])cc4)nn3)ccc21 | 52.9 µM | 50 (≈ 106 µM) | 25 (≈ 52.9 µM) | 100 (≈ 212 µM) |  |  |  |  |  | 
CN1c2ccccc2Sc2cc(/C=N/OCc3cn(Cc4ccc(C#N)cc4)nn3)ccc21 | 27.6 µM | 25 (≈ 55.2 µM) | 12.5 (≈ 27.6 µM) | 25 (≈ 55.2 µM) |  |  |  |  |  | 
Cc1ccc(Cn2cc(CO/N=C/c3ccc4c(c3)Sc3ccccc3N4C)nn2)cc1 | 56.6 µM | 50 (≈ 113 µM) | 25 (≈ 56.6 µM) | 100 (≈ 226 µM) |  |  |  |  |  | 
c1ccc(Cn2cc(CN3c4ccccc4Sc4ccccc43)nn2)cc1 | 6.25 µg/mL | 50 (≈ 135 µM) | 50 (≈ 135 µM) | 100 (≈ 270 µM) |  |  |  |  |  | 
COc1ccc(Cn2cc(CO/N=C/c3ccc4c(c3)Sc3ccccc3N4C)nn2)cc1 | 54.6 µM | 100 (≈ 219 µM) | 50 (≈ 109 µM) | 100 (≈ 219 µM) |  |  |  |  |  | 
O=C(O)c1cn(C2CC2)c2cc(N3CCNCC3)c(F)cc2c1=O [CIPROFLOXACIN] |  |  | 2 (≈ 6.04 µM) | 4 (≈ 12.1 µM) |  |  |  |  |  | 
NNC(=O)c1ccncc1 [ISONIAZID] | 3.12 µg/mL |  |  |  |  |  |  |  |  | 
NC(=O)c1cnccn1 [PYRAZINAMIDE] | 3.12 µg/mL |  |  |  |  |  |  |  |  | 
CN[C@@H]1[C@H](O[C@H]2[C@H](O[C@H]3[C@H](O)[C@@H](O)[C@H](N=C(N)N)[C@@H](O)[C@@H]3N=C(N)N)O[C@@H](C)[C@]2(O)C=O)O[C@@H](CO)[C@H](O)[C@H]1O [STREPTOMYCIN] | 6.25 µg/mL |  |  |  |  |  |  |  |  | 
